From publication PMC10707468, “Pharmacokinetics of Novel Dopamine Transporter Inhibitor CE-123 and Modafinil with a Focus on Central Nervous System Distribution” (International Journal of Molecular Sciences, 2023)
Values joined by “and” are separate entries in the source; they are usually repeats but may differ in a detail not shown here. Equal entries are not always repeated. Where two headings read alike, the source gives them in different places.

What was measured:
[1] = system: cerebEND in vitro model of the blood–brain barrier; assay: In vitro Transwell blood-brain barrier model based on mouse cell line cerebEND; assay type: in vitro ADME; details: for Clin (rate of BBB transport) / Clout (rate of BBB transport): parameter used in simulation; for Pe rat: scaled with BBB surface area 180 cm2, similar permeability in rat assumed
Excerpt: Research on modafinil analogs has gained significant momentum in recent decades due to the compound’s unique pharmacological properties and potential therapeutic applications. The primary objectives of these studies were to identify modafinil analogs that can address a wide range of cognitive deficits and neurological conditions effectively, with a reduced risk of side effects. In our previous study, we reported a series of modafinil analogs with higher DA reuptake inhibition activity and higher selectivity for the DAT in comparison to modafinil. These improvements were achieved by making strategic modifications involving the substitution of the carboxamide moiety with five- and six-membered aromatic heterocycles. […] In addition, Kristofova et al. (2018) have used the mouse cell line cerebEND as an in vitro model to study the ability of CE-123 to cross an in vitro model of the blood–brain barrier (BBB). […] Yet, due to significant differences in the plasma pharmacokinetic (PK) profiles, governed primarily by differences in metabolism, direct comparison between two compounds after single IP dosing could be misleading.
Table S4. Parameters used in simulation exercise.
Fraction of un bound in unitless 0.252 0.797
Rate of BBB transport parameters*
Ext ent of BBB transport and intra-brain dist ribution
Unbound brain-t o-plasma unitless 0.46 0.097 concentrati on rat io, Kp,uu,brain
Unbound volume of mL/g brain 5.21 3.73 distribution in brain, Vu,brain
Additional parameters used
Infusi on rate mg/h 0.05 1.0
* Data of blood-brain barrier per meation of 100 µM CE-123 and modafinil across an in vitro Transw ell model based on mouse cell line cerebEND were included in the simulation. Experimental procedures were published previously The permeability coefficients w ere calculated according to the clearance principle deduct ing blank inserts without cells.
**Similar apparent permeability in human BBB cell culture model and rat endot helial cells was assumed.

[2] = In vivo rat tissue biodistribution / neuroPK study, 4 h intravenous constant infusion; design: species or system Sprague-Dawley rats; details: rat; for Kp at 4 h / concentration at 4 h: Sprague-Dawley; for Kp at 4 h: brain (whole brain homogenate) relative to plasma, steady state, read-out: Total brain-to-plasma concentration ratio, Kp,brain; for concentration at 4 h: intravenous, 20 mg/kg; for order of Kp,tissue from highest to lowest: total tissue-to-plasma concentration ratio
Protocol: The results are summarized in Figure 4 and Table S2 within Supplementary Materials.
In order to minimize the usage of animals and gain high confidence in the tissue distribution, a 4 h constant intravenous infusion study was designed based on the systemic pharmacokinetic parameters determined elsewhere. The catheters were surgically implanted a day before the PK experiment. The rats (n = 3 per compound) were then individually placed into a CMA 120 system (CMA, Solna, Sweden). […] A dose of 20 mg/kg was administered as a combination of an initial short 10 min infusion as a loading dose followed by a constant infusion up to 4 h, targeting a steady-state total plasma concentration of around 1000 ng/mL for each compound (based on the pilot study results). Blood was collected into heparinized Eppendorf tubes via a femoral artery catheter at 0 (before infusion starts) 1, 2, 3, and 4 h after the infusion started and immediately centrifuged at 10,000 rpm for 5 min at +4 °C. Plasma was then collected and kept at −20 °C. At 4 h, the rats were anesthetized via inhalation of 2.5% isoflurane (Abbot Scandinavia, Solna, Sweden), balanced with 1.5 L/min oxygen, after which the terminal blood and tissue samples were collected. […] The tissue samples (brain, spinal cord, liver, and kidney) were rapidly removed, pre-weighed into a 2 mL hard tissue homogenizing tube with mini-beads, and subsequently homogenized in 2 volumes of MQ water using a 4-Place Bead Mill Homogenizer (VWR, Stockholm, Sweden) at the maximal speed for 2 min and thereafter kept at +4 °C. The plasma and tissue homogenate samples were stored at −20 °C until LC–MS analysis.
For all the rat plasma and CSF samples, an aliquot of 50 µL was spiked with 50 µL of 4% PA in water containing the IS solution to disrupt the drug–protein binding. For all rat tissue samples (brain, spinal cord, liver, and kidney), an aliquot of 50 µL was spiked with 50 µL ice-cold ACN containing the IS solution for protein precipitation. The samples were vortexed and spun down for 10 min (3000× g, 4 °C) and 25 µL of clear supernatant was diluted with 225 µL 0.1% FA in water to achieve 10% of ACN in the solution. SPE clean-up was performed using an Oasis PRiME HLB µElution 96-well plate, 3 mg (Waters Corporation, Vienna, Austria). The SPE cartridges were preconditioned and equilibrated with 1 × 200 µL ACN and 0.1% FA in water each. The samples were loaded onto the cartridges and washed with 2 × 200 µL 0.1% FA in water and 1 × 200 µL ACN/0.1% FA in water 10:90 (v:v). The analytes were eluted from the SPE cartridge into a collection plate with 2 × 25 µL ACN/0.1% FA in water 70:30 (v:v). All the samples were diluted with 50 µL of 0.1% FA in water and 10 µL of sample was injected onto the LC–HRMS system.
All samples, blanks, standards, and quality control samples in the respective matrices were analyzed on a UHPLC system (Dionex UltiMate 3000 RSLC series system, Thermo Fisher Scientific, Inc., Dreieich, Germany) coupled with a high-resolution mass spectrometer (maXis HD Q-TOF, Bruker Daltonics, Bremen, Germany) equipped with a heated electrospray ionization (ESI) source. Reversed-phase chromatographic separation was performed on a Kinetex Phenyl-Hexyl column (2.6 µm, 2.1 × 50 mm, Phenomenex, Torrance, CA, USA), equipped with a precolumn (2.6 µm, Phenomenex, Torrance, CA, USA), at a flow rate of 0.4 mL/min. Eluent A was water containing 0.1% FA and eluent B ACN. A multi-step gradient was optimized as follows: the initial mobile phase composition (5% eluent B) was held constant for 1 min, followed by a linear increase to 30% eluent B until minute 1.5, to 40% eluent B until minute 5.5, and to 95% eluent B until minute 6. After a hold time of 2 min, the column was re-equilibrated for 2.5 min at the initial conditions (5% eluent B). The column compartment and the autosampler were maintained at 40 °C and at 8 °C, respectively. […]

[3] = In vitro plasma stability assay; assay type: in vitro ADME; details: rat plasma
Protocol: In vitro plasma stability assay was used in the scope of the validation studies. Briefly, 40 μL of blank rat plasma or blank rat plasma containing 10% DMF as an inhibitor was first pre-warmed for 5 min at 37 °C using a Thermomixer® comfort (Eppendorf, Hamburg, Germany). […] The reaction was terminated after 0, 1, 2, and 4 h, via the addition of 50 μL of ice-cold ACN containing the IS solution. The samples were centrifuged for 10 min at 3000× g at 4 °C. The supernatant of all samples was diluted with 0.1% FA in water, 1:2 (v:v), and 10 µL of the sample was injected onto the LC–HRMS system.

[4] = 4 h iv constant infusion 20 mg/kg
[5] = brain, 4 h iv constant infusion 20 mg/kg, n=3, read-out: Total concentration in brain
[6] = kidney, 4 h iv constant infusion 20 mg/kg, n=3, read-out: Total concentration in kidney
[7] = liver, 4 h iv constant infusion 20 mg/kg, n=3, read-out: Total concentration in liver
[8] = plasma, 4 h iv constant infusion 20 mg/kg, n=3, read-out: Total concentration in plasma
[9] = plasma, 4 h iv constant infusion 20 mg/kg, read-out: Total drug concentration in plasma, Ctot,plasma
[10] = plasma, 4 h iv constant infusion 20 mg/kg, read-out: Total steady-state plasma concentration, Cplasma,ss
[11] = plasma, mean, in vivo study, 4 h iv infusion 20 mg/kg, read-out: Unbound-drug concentration in plasma, Cu,plasma
[12] = spinal cord, 4 h iv constant infusion 20 mg/kg, n=3, read-out: Total concentration in spinal cord

| Structure (SMILES) | Clin (rate of BBB transport) [1] [L/h] | Clout (rate of BBB transport) [1] [L/h] | Pe rat [1] [mL/min] | Kp at 4 h [2, 4] | concentration at 4 h ([2]; CSF, cisterna magna, 4 h iv infusion 20 mg/kg, single rats, read-out: Total concentration in CSF) [ng/mL] | concentration at 4 h [2, 5] [ng/g] | concentration at 4 h ([2]; brain, single sample, rat brain after 4 h iv infusion 20 mg/kg, read-out: concentration in rat brain sample (Figure S4 chromatogram)) [ng/mL] | concentration at 4 h [2, 6] [ng/g] | concentration at 4 h [2, 7] [ng/g] | concentration at 4 h [2, 8] [ng/mL] | concentration at 4 h [2, 9] [µM] | concentration at 4 h [2, 10] [µM] | concentration at 4 h [2, 11] [µM] | concentration at 4 h [2, 12] [ng/g] | order of Kp,tissue from highest to lowest [2] | R-modafinil level remaining ([3]; 4 h incubation at 37 °C) | metabolized ([3]; after 4 h at 37 °C) [%] | Total concentration in CSF ([2]; cisterna magna, 4 h iv infusion 20 mg/kg, single rats) |
| --- | --- | --- | --- | --- | --- | --- | --- | --- | --- | --- | --- | --- | --- | --- | --- | --- | --- | --- |
| NC(=O)C[S@@+]([O-])C(c1ccccc1)c1ccccc1 [R-modafinil, reference compound] | 0.025 | 0.261 | 0.422 | 0.29 ± 0.013 | 784 | 448 | 471 | 2540 | 2170 | 1010 | 3.69 | 5.57 ± 0.649 | 2.91 | 733 | kidneys > liver > spinal cord > brain | about 50% | 50 | – |
| [O-][S@@+](Cc1cncs1)C(c1ccccc1)c1ccccc1 [S-CE-123] | 0.033 | 0.071 | 0.545 | 0.61 ± 0.1 | – | 820 | – | 1780 | 2730 | 1050 | 3.35 | 4.15 ± 2.2 | 0.839 | 1240 | liver > kidneys > spinal cord > brain | – | – | 570 ng/mL and 104 ng/mL |
